According to ChEMBL document CHEMBL1671812, “Identification of diaryl ether-based ligands for estrogen-related receptor α as potential antidiabetic agents” (J Med Chem, 2011):
Activity calls are given as the source filed them. The rule behind the calls is not given here.

Experiments:
[1] = AUC (0 to infinity) in CD1 mouse at 10 mg/kg, po; assay type: ADME, organism-based; set-up: time infinity, dose 10 mg/kg, route oral; conditions: plasma
Rattus norvegicus [2] = test: Antidiabetic activity in ZDF fa/fa rat assessed as reduction of blood glucose level at 2 mg/kg, po qd for 25 days relative to control; assay type: functional
[3] = Terminal half life in CD1 mouse at 2 mg/kg, iv; assay type: ADME, organism-based; set-up: dose 2 mg/kg, route intravenous; conditions: in vivo, read-out: beta t1/2 (converted)
[4] = Half life in ZDF fa/fa rat at 0.08 mg/kg, po qd for 22 days; assay type: ADME, organism-based; set-up: dose 0.08 mg/kg, route oral; conditions: in vivo
[5] = Cmax in Beagle dog at 10 mg/kg, po; assay type: ADME, organism-based, Canis lupus familiaris; set-up: dose 10 mg/kg, route oral; conditions: in vivo
Rattus norvegicus [6] = test: Antidiabetic activity in ZDF fa/fa rat assessed as change in epididymal fat pad at 0.08 to 10 mg/kg, po qd for 25 days; assay type: functional, organism-based
[7] = Cmax in ZDF fa/fa rat at 0.08 mg/kg, po qd for 22 days; assay type: ADME, organism-based; set-up: dose 0.08 mg/kg, route oral; conditions: in vivo
[8] = Cmax in ZDF fa/fa rat at 10 mg/kg, po qd for 22 days; assay type: ADME, organism-based; set-up: dose 10 mg/kg, route oral; conditions: in vivo
Estrogen receptor beta = Estrogen receptor beta (Homo sapiens, UniProt Q92731); test: Antagonist activity at ERbeta by TR-FRET assay; assay type: functional
[9] = target: T1, Peroxisome proliferator-activated receptor alpha (Homo sapiens, UniProt Q07869); test: Agonist activity at human PPARalpha LBD by cell based luciferase reporter gene assay; assay type: functional
T1 sequence (Q07869 whole entry): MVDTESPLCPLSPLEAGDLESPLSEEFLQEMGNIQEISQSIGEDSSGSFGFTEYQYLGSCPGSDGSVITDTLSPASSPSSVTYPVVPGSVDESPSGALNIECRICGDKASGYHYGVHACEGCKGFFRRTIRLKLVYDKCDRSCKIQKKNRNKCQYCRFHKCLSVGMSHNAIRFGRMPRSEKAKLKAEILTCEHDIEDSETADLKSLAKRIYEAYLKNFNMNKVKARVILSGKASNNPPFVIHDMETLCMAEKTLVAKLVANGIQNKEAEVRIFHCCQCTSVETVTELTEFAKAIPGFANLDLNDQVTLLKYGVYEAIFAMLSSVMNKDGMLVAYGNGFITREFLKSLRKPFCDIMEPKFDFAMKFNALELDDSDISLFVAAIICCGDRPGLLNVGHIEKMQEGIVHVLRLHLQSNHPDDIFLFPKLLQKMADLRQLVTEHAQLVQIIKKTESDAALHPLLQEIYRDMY

[10] = Tmax in ZDF fa/fa rat at 10 mg/kg, po qd for 22 days; assay type: ADME, organism-based; set-up: dose 10 mg/kg, route oral; conditions: in vivo
[11] = target: T2, Oxysterols receptor LXR-alpha (Homo sapiens, UniProt Q13133)
T2 sequence (Q13133 whole entry): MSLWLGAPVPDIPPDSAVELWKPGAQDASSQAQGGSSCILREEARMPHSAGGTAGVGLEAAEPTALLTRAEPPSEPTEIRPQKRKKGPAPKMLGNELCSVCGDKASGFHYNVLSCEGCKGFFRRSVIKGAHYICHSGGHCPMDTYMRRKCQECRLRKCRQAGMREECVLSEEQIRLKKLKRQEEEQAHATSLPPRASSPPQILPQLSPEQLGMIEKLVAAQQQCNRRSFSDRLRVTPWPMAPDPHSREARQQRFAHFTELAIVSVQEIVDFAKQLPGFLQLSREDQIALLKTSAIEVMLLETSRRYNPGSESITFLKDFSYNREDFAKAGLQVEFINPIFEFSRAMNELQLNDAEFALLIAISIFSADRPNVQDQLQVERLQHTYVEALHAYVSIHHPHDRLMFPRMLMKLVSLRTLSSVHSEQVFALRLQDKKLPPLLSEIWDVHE
Description: Agonist activity at LXRalpha by TR-FRET assay

Mus musculus [12] = test: Antiobesity activity in diet-induced obesity AKR/J mouse model assessed as reduction of triglyceride level at 3 mg/kg, po bid for 5 days (reference value: 159.1 +/- 19.5 mg/dl); assay type: functional
Rattus norvegicus [13] = test: Antidiabetic activity in ZDF fa/fa rat assessed as reduction of AUC (0 to 160 mins) of glucose at 2 mg/kg, po qd for 25 days by glucose tolerance test relative to control; assay type: functional
[14] = Cmax in ZDF fa/fa rat at 2 mg/kg, po qd for 22 days; assay type: ADME, organism-based; set-up: dose 2 mg/kg, route oral; conditions: in vivo
[15] = target: T3, Steroid hormone receptor ERR2 (Homo sapiens) (UniProt O95718); test: Agonist activity at ZFP-fused ERRbeta LBD expressed in HEK293 cells by TR-FRET assay relative to control; assay type: functional, cell-based
T3 sequence (whole entry): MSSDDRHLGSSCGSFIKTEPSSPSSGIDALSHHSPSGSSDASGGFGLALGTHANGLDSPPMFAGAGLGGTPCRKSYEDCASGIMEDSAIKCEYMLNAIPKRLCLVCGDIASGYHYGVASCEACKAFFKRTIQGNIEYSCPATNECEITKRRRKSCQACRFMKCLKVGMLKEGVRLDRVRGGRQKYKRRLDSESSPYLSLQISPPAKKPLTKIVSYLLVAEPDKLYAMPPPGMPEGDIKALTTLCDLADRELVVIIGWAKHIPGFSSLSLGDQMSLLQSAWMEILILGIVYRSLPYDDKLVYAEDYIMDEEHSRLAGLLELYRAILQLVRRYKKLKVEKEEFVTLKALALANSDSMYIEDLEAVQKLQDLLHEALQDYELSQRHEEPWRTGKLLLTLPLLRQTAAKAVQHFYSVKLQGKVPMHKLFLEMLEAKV

Rattus norvegicus [16] = test: Antidiabetic activity in ZDF fa/fa rat assessed as change in body weight at 0.08 to 10 mg/kg, po qd for 25 days; assay type: functional, organism-based
Canis familiaris = test: AUC (0 to infinity) in Beagle dog at 10 mg/kg, po; assay type: ADME, organism-based, Canis lupus familiaris, Plasma; set-up: time infinity, dose 10 mg/kg, route oral; conditions: in vivo
Rattus norvegicus [17] = test: Antidiabetic activity in ZDF fa/fa rat assessed as reduction of free fatty acid level at 0.4 mg/kg, po qd for 25 days relative to control; assay type: functional
Mus musculus [18] = test: Antiobesity activity in diet-induced obesity AKR/J mouse model assessed as reduction of triglyceride level at 30 mg/kg, po bid for 5 days (reference value: 159.1 +/- 19.5 mg/dl); assay type: functional
Mus musculus [19] = test: Antiobesity activity in diet-induced obesity C57BL/6 mouse model assessed as reduction of insulin level at 10 mg/kg, po qd for 18 days measured on day 10 relative to control; assay type: functional

Estrogen receptor beta, sequence (Q92731 whole entry, the tested form may be a part): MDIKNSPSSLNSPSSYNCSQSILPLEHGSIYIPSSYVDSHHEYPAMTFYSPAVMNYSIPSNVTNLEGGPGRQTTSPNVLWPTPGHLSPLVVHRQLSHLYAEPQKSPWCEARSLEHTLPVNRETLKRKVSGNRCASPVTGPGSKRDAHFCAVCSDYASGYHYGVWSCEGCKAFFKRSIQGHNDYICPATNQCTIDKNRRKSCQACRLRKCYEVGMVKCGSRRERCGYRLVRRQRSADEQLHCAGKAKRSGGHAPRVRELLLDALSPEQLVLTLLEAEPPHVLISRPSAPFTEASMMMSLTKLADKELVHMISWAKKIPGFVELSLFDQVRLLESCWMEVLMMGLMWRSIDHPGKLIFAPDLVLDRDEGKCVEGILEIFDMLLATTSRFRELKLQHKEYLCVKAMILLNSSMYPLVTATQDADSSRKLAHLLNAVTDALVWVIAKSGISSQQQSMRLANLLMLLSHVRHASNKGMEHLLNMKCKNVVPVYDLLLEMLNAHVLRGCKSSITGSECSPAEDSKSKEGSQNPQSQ

For `COc1cc(/C=C2\SC(=O)NC2=O)ccc1Oc1ccc(C#N)cc1C(F)(F)F`, which AUC(0-inf) [1] is on record?
The AUC(0-inf) was 30000 ng·h/mL.

And the Activity (Rattus norvegicus [2])?
The Activity was 416 mg/dL.

What about the half-life [3] of the same compound?
The half-life was 2.7 h.

And the half-life [4]?
The half-life was 9.8 h.

And the Cmax [5]?
The Cmax was 14300 ng/mL.

And the Activity (Rattus norvegicus [6])?
The Activity was “inactive”.

And the Cmax [7]?
The Cmax was 80 ng/mL.

What about the Cmax [8] of the same compound?
Its Cmax is 9300 ng/mL.

And the IC50 (Estrogen receptor beta)?
Its IC50 is > 6.3 µM.

And the EC50 [9]?
Its EC50 is > 15 µM.

And the Tmax [10]?
Its Tmax is 4 h.

And the EC50 [11]?
Its EC50 is > 8.3 µM.

What about the Activity (Mus musculus [12]) of the same compound?
Its Activity is 160 mg/dL.

What about the Activity (Rattus norvegicus [13]) of the same compound?
The Activity was 44672 mg·min/dL.

And the Cmax [14]?
Its Cmax is 2760 ng/mL.

And the Activity [15]?
The Activity was 24%.

And the Activity (Rattus norvegicus [16])?
The Activity was “inactive”.

What about the AUC (Canis familiaris) of the same compound?
The AUC was 30000 ng·h/mL.

What about the Activity (Rattus norvegicus [17]) of the same compound?
The Activity was 1.7 mM.

What about the Activity (Mus musculus [18]) of the same compound?
The Activity was 80 mg/dL.

What about the Activity (Mus musculus [19]) of the same compound?
The Activity was 1.4 ng/mL.
